Values joined by “and” are separate entries in the source; they are usually repeats but may differ in a detail not shown here. Equal values may be shown once. “Also recorded” adds a separate entry of the source.
Legend:
[1] = tested on: paclitaxel-induced mechanical allodynia
[2] = tested on: paclitaxel-induced cold allodynia
[3] = tested on: paclitaxel induced paw hyperalgesia
[4] = tested on: paclitaxel-induced thermal hyperalgesia
[5] = tested on: paclitaxel induced orofacial allodynia
[6] = tested on: paclitaxel induced paw allodynia
[7] = in vivo; cited from earlier work
[8] = tested on: paclitaxel-induced painful peripheral neuropathy; design: species or system CD-1 mice; settings: mouse, in vivo, sc
[9] = tested on: Chemotherapy Induced Neuropathic Pain (CINP); design: species or system Human Subjects; settings: in vivo
[10] = design: species or system Human Subjects; settings: in vivo
[11] = paclitaxel 2 mg/kg i.p. once daily 5 days
[12] = paclitaxel 1 mg/kg i.p. days 1, 3, 5, 7, rats

Compound: CC(=O)O[C@H]1C(=O)[C@@]2(C)[C@H]([C@H](OC(=O)c3ccccc3)[C@]3(O)C[C@H](OC(=O)[C@H](O)[C@@H](NC(=O)c4ccccc4)c4ccccc4)C(C)=C1C3(C)C)[C@]1(OC(C)=O)CO[C@@H]1C[C@@H]2O [paclitaxel, Paclitaxel, reference compound]
- induction of mechanical allodynia (threshold force, Von Frey test) ([1]; paclitaxel 2 mg/kg i.p. during 5 days, day 10): induced mechanical allodynia
- animals showing a reduction of the mechanical threshold ([1]; paclitaxel-treated mice): 96%
- animals with increased time licking/biting (paclitaxel-responder animals) [2, 11]: 67%
- time of maximal cold allodynia after the first injection [2, 11]: 10 to 14 days
- thermal latency vs vehicle-treated group [3, 12]: significantly reduced
- time of maximal thermal hyperalgesia after the first injection [4, 11]: 7 days
- paw withdrawal latency in the plantar test vs pre-treatment day ([4]; paclitaxel 2 mg/kg i.p. once daily 5 days, all post-treatment days): significantly reduced
- animals that did not develop thermal hyperalgesia on day 7 ([4]; paclitaxel-treated mice): Around 9%
- mechanical threshold (orofacial) vs vehicle-treated group [5, 12]: significantly reduced
- mechanical threshold (paw) vs vehicle-treated group [6, 12]: significantly reduced

Compound: Octahydro-12-(Hydroxymethyl)-2-imino-5,9,7,10a-dimethano-10aH-[1,3]dioxocino[6,5-d]pyrimidine-4,7,10,11,12-pentol [TTX]
- safety profile of the doses [7]: acceptable safety profile
- analgesic effects in the model of neuropathic pain [8]: clear analgesic effects
- effect on expression of paclitaxel-induced cold allodynia ([2]; mouse, in vivo): inhibited the expression
- days with statistically significant difference vs paclitaxel+saline, duration of licking/biting ([2]; mouse, in vivo, sc): days 10 and 14
- days with statistically significant difference vs paclitaxel+saline, frequency of licking/biting ([2]; mouse, in vivo, sc): days 7, 10 and 14
- effect on development of paclitaxel-induced cold allodynia (two variables) ([2]; mouse, in vivo, sc): did not significantly affect
- effect significantly different from saline, frequency of licking/biting ([2]; mouse, in vivo, sc): only in the animals treated with TTX 6 μg/kg
- time after injection with effect significantly different from saline, duration of licking/biting ([2]; mouse, in vivo, sc): 1 h
- Responders, 30% reduction in average NPRS score from baseline to any 10 consecutive days: No, number of subjects [9]: 17 (68.0%) and 14 (58.3%) and 15 (60.0%) and 11 (42.3%)
- Responders, 30% reduction in average NPRS score from baseline to any 10 consecutive days: No, percent [9]: 17 (68.0%) and 14 (58.3%) and 15 (60.0%) and 11 (42.3%)
- Responders, 30% reduction in average NPRS score from baseline to any week: No, number of subjects [9]: 16 (64.0%) and 13 (54.2%) and 15 (60.0%) and 11 (42.3%)
- Responders, 30% reduction in average NPRS score from baseline to any week: No, percent [9]: 16 (64.0%) and 13 (54.2%) and 15 (60.0%) and 11 (42.3%)
- Responders, 30% reduction in average NPRS score from baseline to any week: Yes, number of subjects [9]: 9 (36.0%) and 11 (45.8%) and 10 (40.0%) and 15 (57.7%)
- Nervous system disorders, number of subjects [10]: 13 and 16 and 17 and 20
- Number of Subjects with at least 1 AE [10]: 21 and 22 and 20 and 24
- Paresthesia, number of subjects [10]: 5 and 7
- grade 4 AEs [10]: no grade 4 AEs
- number of grade 3 AEs [10]: four and seven
- number of patients with serious adverse effects (SAEs) [10]: Three
- number of subjects with grade 3 AE [10]: Four
- relation of the SAEs to TTX [10]: two unrelated and one unlikely related
- severity of most AEs [10]: grade 1 or 2; also recorded: mild or moderate
- severity of nervous system AEs [10]: grade 1 or 2 save for one event of grade 3 paresthesia
- Hypesthesia oral, number of subjects ([10]; po): 5 and 7 and 6 and 10
- Oral paresthesia (most common AE), number of patients of 125 ([10]; po): 37
- Oral paresthesia (most common AE), percent ([10]; po): 29.6%
- dose relation of Oral Paresthesia ([10]; po): increasing trend in relation to increasing dose
- oral hypesthesia, number of patients of 125 ([10]; po): 31
- oral hypesthesia, percent ([10]; po): 24.8%
- effect of a single dose on paw hyperalgesia ([3]; rat, in vivo, sc): did not significantly reduce
- prevention of development of hyperalgesia in the paw ([3]; rat, in vivo, sc): able to prevent the development
- effect of a single dose on allodynia in the trigeminal territory ([5]; rat, in vivo, sc): partial but significant decrease
- prevention of development of allodynia in the orofacial region ([5]; rat, in vivo, sc): able to prevent the development
- effect of a single dose on allodynia in the sciatic territory ([6]; rat, in vivo, sc): partial but significant decrease
- prevention of development of allodynia in the paw ([6]; rat, in vivo, sc): able to prevent the development
